Assay results from paper PMC7551256, “Biochemical Characterization of a Novel Endo-1,3-β-Glucanase from the Scallop Chlamys farreri” (Marine Drugs, 2020).

Tests used:
Lcf [1] = target: T1, Lcf (Azumapecten farreri, UniProt A0A140H631); test: ESI-MS of transglycosylation products; type: biochemical; conditions: glycosyl acceptor 2 mg/mL; donor laminarihexaose 2 mg/mL; 25 mM sodium acetate pH 5.6, 37 °C, 5 min
T1 construct: full length without signal peptide; secreted from Brevibacillus (pNCMO2, BamHI/XhoI); about 37 kDa; primers encode AGFRDDF at N-terminus and DYIEMIPH-stop at C-terminus
T1 sequence (A0A140H631 16-340): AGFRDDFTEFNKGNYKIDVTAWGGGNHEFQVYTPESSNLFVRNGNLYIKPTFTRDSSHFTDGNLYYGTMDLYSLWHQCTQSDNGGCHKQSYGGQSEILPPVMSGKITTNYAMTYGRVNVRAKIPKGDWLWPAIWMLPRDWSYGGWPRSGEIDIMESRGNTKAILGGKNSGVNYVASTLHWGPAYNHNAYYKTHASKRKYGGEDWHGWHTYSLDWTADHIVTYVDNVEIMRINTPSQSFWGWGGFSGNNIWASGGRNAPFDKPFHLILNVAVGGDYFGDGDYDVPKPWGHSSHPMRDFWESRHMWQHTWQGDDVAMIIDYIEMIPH

Lcf [2] = target: T1, Lcf; test: TLC of hydrolysis products; ESI-MS; type: biochemical; conditions: 0.1% (w/w) substrate, 50 mM sodium acetate pH 5.6, 37 °C; hydrolysed, also glycosyl donor

Structure (SMILES) | ESI-MS of transglycosylation products (Lcf [1]) | TLC of hydrolysis products; ESI-MS (Lcf [2])
OC[C@@H](O)[C@@H](O)[C@H](O)[C@@H](O)CO [D-sorbitol] | three transglycosylation products were observed in the presence of D-sorbitol | –
OC[C@H]1O[C@@H](O[C@@H]2[C@@H](O)[C@H](O[C@@H]3[C@@H](O)[C@H](O[C@@H]4[C@@H](O)[C@H](O[C@@H]5[C@@H](O)[C@H](O[C@H]6[C@H](O)[C@@H](CO)OC(O)[C@@H]6O)O[C@H](CO)[C@H]5O)O[C@H](CO)[C@H]4O)O[C@H](CO)[C@H]3O)O[C@H](CO)[C@H]2O)[C@H](O)[C@@H](O)[C@@H]1O (some centres unmarked) [laminarihexaose] | – | Lcf showed a more efficient cleavage rate toward laminarinexaose
